For orientation: EC50 means the concentration that produces a half-maximal response. In general, IC50 refers to the point on the concentration scale where inhibition reaches its midpoint.

Drawing on ChEMBL document CHEMBL1201862, “PubChem BioAssay data set” (2004), this text covers EC50, IC50 and CC50 for 5 molecules.

Test [1] can be described thus: Luminescence Cell-Based Dose Response to Identify Activators of 5'UTR Stem-Loop Driven Prion Protein mRNA Translation in H4-C Neuroglioblastoma Cells. [Related pubchem assays: 1829 (Project Summary), 1814 (Primary HTS)]. It counts as functional.
Test [2] in a line: Luminescence Cell-Based Dose Response HTS to Identify Activators of Luciferase Translation or Activity in H4 […] Cells. [Related pubchem assays: 1829 (Project Summary), 1814 (Primary HTS)]. The test is classed as functional.
In test [3] the test system is H4. The test is described as follows: Luminescence Cell-Based Dose Response HTS to Identify Activators of 5'UTR Stem-Loop Driven Prion Protein mRNA Translation in H4 Neuroglioblastoma Cells. [Related pubchem assays: 1829 (Project Summary), 1814 (Primary HTS)]. The test is classed as functional. Conditions: Homo sapiens.
A short description of test [4]: Luminescence Cell-Based Dose Response to Identify Activators of Luciferase Translation or Activity in H4-C Neuroglioblastoma Cells. [Related pubchem assays: 1829 (Project Summary), 1814 (Primary HTS)]. It counts as functional.
Test [5] can be described thus: Luminescence Cell-Based Dose Confirmation to Identify Activators of 5'UTR Stem-Loop Driven Alpha-Synuclein mRNA Translation in H4 Neuroglioblastoma Cells. [Related pubchem assays: 1829 (Project Summary), 1814 (Primary HTS)]. The test is classed as functional.
Test [6] addresses T1, Aminopeptidase N (Plasmodium falciparum FcB1/Columbia, UniProt O96935).
T1 sequence (O96935 whole entry): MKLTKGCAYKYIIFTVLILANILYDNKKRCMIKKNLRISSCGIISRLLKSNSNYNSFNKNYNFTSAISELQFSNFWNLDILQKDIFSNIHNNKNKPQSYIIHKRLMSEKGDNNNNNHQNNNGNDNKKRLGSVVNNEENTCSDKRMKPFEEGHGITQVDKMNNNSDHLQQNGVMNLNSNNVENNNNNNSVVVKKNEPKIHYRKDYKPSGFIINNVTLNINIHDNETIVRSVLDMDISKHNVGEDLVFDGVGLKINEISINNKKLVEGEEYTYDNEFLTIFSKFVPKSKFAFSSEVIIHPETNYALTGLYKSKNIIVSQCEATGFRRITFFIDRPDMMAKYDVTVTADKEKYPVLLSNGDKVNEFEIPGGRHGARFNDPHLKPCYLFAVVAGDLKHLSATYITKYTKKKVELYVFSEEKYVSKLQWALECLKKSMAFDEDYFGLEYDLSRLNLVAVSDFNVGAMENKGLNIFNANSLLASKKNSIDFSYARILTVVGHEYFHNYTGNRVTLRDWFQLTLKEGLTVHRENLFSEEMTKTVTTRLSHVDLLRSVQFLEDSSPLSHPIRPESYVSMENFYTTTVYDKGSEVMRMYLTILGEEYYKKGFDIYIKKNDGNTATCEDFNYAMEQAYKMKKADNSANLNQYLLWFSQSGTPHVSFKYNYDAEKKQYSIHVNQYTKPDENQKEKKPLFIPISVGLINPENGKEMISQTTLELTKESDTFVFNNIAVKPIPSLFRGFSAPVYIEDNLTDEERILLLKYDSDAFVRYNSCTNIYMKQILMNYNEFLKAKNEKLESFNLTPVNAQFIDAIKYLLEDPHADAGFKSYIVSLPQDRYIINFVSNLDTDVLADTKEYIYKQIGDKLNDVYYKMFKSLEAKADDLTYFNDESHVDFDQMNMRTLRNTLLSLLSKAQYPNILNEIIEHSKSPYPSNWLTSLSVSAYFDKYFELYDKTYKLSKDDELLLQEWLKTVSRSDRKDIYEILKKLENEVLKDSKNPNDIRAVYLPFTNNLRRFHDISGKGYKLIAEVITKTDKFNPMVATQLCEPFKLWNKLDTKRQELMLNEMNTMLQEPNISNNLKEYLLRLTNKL
The test is described as follows: malaria alanyl aminopeptidase activity blockers – biochemical, fluorogenic H-Leu-NHMec substrate, 1536-well (AID 1445). Set-up: species or system Plasmodium falciparum 3D7, 3D7.

For test [7], the target named is Sphingosine 1-phosphate receptor 2 (Homo sapiens, UniProt O95136). Nature of the test: Dose Response Cell Based Assay for Agonists of the S1P2 Receptor. [Related pubchem assays: 729, 736, 843 ]. It counts as functional.
Chain of Sphingosine 1-phosphate receptor 2 (O95136 whole entry): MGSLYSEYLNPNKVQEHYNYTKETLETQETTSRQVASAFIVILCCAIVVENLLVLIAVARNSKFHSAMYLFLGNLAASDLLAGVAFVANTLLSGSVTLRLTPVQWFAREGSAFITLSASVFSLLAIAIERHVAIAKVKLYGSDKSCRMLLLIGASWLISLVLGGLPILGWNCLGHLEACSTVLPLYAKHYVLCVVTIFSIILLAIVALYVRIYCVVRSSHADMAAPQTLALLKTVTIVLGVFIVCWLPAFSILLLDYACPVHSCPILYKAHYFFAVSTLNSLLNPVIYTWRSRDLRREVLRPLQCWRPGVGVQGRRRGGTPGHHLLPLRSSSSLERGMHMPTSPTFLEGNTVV
In test [8] the target is T2, Mannose-6-phosphate isomerase (Homo sapiens, UniProt P34949).
T2 sequence (P34949 whole entry): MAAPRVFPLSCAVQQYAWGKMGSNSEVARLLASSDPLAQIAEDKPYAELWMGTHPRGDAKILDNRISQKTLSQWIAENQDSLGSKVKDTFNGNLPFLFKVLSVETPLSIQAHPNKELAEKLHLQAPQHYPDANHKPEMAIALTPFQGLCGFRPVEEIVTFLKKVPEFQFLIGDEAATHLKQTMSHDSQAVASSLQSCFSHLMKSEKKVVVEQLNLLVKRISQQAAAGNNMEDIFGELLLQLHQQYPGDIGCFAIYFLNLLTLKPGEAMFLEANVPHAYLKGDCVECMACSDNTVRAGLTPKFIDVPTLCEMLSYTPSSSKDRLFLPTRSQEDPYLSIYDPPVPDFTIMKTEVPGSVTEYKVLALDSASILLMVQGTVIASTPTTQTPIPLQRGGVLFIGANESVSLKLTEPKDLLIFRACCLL
Nature of the test: MPI enzyme activity inhibition – biochemical, fluorescence intensity, coupled assay, primary screen (AID 1209).

Test [9] deals with T2, Mannose-6-phosphate isomerase. The test is described as follows: MPI inhibition at elevated mannose 6-phosphate – biochemical, fluorescence intensity, high mannose 6-phosphate, primary screen (AID 1220).
Test [10] concerns the target Genome polyprotein (dengue virus type 2, UniProt P29990). The test is described as follows: flavivirus cap methylation enzyme inhibition – biochemical, confirmation dose response, primary screen (AID 588689). The test is classed as functional.
The target of test [11] is Ras and Rab interactor 1/Tyrosine-protein kinase ABL1 (Homo sapiens, UniProt P00519+Q13671). It counts as functional.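 Note: biochemical TR-FRET dose-response test measuring inhibition of binding between Rin1 and Abl proteins.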
Chain of Ras and Rab interactor 1/Tyrosine-protein kinase ABL1 (P00519 whole entry): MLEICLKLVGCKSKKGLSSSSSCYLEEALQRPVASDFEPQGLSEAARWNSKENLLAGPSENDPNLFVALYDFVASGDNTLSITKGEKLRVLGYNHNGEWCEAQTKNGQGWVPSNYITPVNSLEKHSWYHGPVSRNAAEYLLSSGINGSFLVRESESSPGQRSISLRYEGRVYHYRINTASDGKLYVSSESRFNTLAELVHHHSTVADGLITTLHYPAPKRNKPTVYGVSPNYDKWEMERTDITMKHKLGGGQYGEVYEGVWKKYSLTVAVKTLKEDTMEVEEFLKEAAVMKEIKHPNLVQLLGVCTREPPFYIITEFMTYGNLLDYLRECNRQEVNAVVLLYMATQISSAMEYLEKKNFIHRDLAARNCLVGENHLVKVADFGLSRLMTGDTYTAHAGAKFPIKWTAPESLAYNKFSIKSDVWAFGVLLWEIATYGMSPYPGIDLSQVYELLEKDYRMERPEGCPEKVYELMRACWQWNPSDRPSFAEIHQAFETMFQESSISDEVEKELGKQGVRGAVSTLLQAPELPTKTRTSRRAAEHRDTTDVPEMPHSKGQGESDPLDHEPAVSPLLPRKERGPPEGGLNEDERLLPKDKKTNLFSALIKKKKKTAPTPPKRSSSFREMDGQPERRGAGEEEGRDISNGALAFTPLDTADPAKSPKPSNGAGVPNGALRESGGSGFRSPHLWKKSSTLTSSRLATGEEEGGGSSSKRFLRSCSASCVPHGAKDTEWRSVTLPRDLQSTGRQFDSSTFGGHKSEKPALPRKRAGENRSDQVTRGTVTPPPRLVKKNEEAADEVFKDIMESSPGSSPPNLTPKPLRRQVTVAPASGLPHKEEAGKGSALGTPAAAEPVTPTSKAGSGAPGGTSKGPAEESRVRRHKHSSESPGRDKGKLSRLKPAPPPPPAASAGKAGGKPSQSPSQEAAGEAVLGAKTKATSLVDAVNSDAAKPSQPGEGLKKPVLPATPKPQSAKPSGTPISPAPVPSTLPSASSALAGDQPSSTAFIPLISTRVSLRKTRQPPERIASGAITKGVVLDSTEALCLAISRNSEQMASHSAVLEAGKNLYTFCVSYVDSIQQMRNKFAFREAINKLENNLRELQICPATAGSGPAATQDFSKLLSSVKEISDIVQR
Chain of Ras and Rab interactor 1/Tyrosine-protein kinase ABL1 (Q13671 whole entry): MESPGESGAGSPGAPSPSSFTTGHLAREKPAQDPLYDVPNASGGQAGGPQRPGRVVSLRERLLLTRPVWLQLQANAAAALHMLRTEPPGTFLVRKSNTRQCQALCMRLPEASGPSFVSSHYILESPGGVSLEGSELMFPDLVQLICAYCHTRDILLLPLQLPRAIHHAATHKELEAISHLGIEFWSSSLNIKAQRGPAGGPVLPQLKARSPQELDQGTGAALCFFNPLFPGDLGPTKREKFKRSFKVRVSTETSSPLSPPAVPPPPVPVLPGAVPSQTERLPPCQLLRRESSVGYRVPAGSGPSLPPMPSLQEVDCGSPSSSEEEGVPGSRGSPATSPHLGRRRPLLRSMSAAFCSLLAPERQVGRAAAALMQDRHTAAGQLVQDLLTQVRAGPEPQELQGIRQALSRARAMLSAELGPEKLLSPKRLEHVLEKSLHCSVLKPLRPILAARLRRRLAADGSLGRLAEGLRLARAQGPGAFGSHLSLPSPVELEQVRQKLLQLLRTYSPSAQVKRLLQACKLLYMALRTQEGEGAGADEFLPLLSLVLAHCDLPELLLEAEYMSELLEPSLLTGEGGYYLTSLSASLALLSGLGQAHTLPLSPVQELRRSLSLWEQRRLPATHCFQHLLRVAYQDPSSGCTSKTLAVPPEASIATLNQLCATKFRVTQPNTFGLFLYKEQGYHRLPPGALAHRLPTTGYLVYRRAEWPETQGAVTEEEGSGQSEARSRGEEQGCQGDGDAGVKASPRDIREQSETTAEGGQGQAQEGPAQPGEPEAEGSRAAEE
Test [12] in a line: M. tuberculosis growth inhibition, HTS (AID 449762). It counts as functional.
A short description of test [13]: microbe, parasite or virus in culture. It counts as functional. As to conditions: Mycobacterium tuberculosis.
Test [14] deals with Glyceraldehyde-3-phosphate dehydrogenase (Homo sapiens, UniProt P04406).
Chain of Glyceraldehyde-3-phosphate dehydrogenase (P04406 whole entry): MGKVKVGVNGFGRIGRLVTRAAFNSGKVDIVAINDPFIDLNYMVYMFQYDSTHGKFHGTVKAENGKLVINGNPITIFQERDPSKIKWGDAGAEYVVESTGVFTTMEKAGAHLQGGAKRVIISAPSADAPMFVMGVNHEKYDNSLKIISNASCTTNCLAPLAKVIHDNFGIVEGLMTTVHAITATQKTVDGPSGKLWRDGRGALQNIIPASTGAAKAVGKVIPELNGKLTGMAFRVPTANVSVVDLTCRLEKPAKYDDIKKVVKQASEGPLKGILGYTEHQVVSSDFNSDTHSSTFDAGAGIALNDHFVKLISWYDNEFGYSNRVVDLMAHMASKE
The target of test [15] is T3, Bcl-2-related protein A1 (Mus musculus, UniProt Q07440).
T3 sequence (Q07440 whole entry): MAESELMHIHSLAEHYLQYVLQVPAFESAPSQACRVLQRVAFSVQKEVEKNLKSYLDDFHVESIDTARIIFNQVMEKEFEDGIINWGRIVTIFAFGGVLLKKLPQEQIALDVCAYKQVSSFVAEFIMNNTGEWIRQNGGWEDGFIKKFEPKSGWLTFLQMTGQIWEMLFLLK
The test is described as follows: small-molecule antagonists of Bfl-1/BH3 interaction – biochemical, TR-FRET, mouse Bfl-1, confirmation (AID 621). (Time-resolved FRET reads energy transfer from a long-lived donor to a nearby acceptor.)

The target of test [16] is T3, Bcl-2-related protein A1. The test is described as follows: Bfl-1 binding inhibitors, SAR follow-up, biochemical, fluorescence polarization (AID 1070). Background: Polarisation of emitted light reports the rotation of a fluorescent probe.

Structures are written as SMILES. Active and inactive are the calls of the source.

Chain of Genome polyprotein (P29990 2492-3391 limits assumed): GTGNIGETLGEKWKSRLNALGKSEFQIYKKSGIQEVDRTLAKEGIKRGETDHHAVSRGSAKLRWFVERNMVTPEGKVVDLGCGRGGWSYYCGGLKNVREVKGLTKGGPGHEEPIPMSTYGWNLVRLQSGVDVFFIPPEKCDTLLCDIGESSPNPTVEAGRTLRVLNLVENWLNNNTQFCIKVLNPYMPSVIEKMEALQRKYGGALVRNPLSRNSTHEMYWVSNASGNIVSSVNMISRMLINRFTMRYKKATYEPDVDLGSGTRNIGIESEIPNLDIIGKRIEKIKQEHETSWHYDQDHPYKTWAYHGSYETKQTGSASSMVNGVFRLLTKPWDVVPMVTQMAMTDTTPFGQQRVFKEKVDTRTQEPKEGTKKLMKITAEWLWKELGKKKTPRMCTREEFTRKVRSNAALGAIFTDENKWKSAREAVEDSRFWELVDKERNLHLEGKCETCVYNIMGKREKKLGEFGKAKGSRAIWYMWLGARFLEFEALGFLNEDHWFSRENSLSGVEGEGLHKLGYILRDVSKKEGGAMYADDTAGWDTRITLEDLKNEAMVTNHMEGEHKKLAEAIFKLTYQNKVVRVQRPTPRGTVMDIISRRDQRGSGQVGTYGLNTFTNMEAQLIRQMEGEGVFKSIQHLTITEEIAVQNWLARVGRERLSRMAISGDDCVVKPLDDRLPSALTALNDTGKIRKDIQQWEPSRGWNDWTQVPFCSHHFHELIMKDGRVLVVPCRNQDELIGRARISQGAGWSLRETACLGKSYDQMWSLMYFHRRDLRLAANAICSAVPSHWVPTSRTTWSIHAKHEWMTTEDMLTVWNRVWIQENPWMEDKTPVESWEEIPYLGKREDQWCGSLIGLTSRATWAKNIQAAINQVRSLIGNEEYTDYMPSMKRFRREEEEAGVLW

On to `CC(=O)Nc1ccc2c(c1)ncn2-c1ccccc1`, for which the EC50 is 0.608 µM (active) in test [1]; < 0.1 µM (inconclusive) in [2]; > 120 µM (not active) in test [3]; 0.46 µM (active) in test [4]; 0.218 µM (active) in test [5].

Turning to `O=C(Nc1ccccn1)Nc1cccs1`, in [6], the IC50 was 61.8 µM (active). For the same molecule, in test [7], the EC50 is listed as > 50 µM (not active).

Turning to `Oc1ccc(/C=N/N2CCOCC2)c(O)c1O`, the IC50 in [8] was 11.6 µM (active); in [9], 10.3 µM (active); in [10], 45 µM (active); in [11] it was > 73.5 µM (inactive).

In the case of `CN1CCN(c2ccc(C(=O)c3cn(-c4ccc(F)c(Cl)c4)nn3)cc2)CC1`, in test [12], the IC50 was > 100 µM (active). Further, in test [13], the CC50 is 15 µM (active).

With `O=C1C(Cl)=C(Nc2ccc(F)cc2)C(=O)N1c1ccc(Cl)c(Cl)c1`, the IC50 is > 100 µM (not active) in [14], 96.5 µM (active) in test [15] and > 100 µM (not active) in test [16].
